Common to all, as to type: biochemical
Test [1] deals with T1, full length recombinant Pim-2 protein (Homo sapiens, UniProt Q9P1W9).
T1 construct: by full length recombinant Pim-1, Pim-2, or Pim-3 protein; hexahistidine tag followed by a thrombin cleavage site (N); made in house; host or cells: Sf9 (baculovirus) or E. coli (pET28)
The experiment in a line: Pim-2 enzyme assay (HTRF, phosphorylation of biotinylated-BAD (S112) peptide). The following applies: enzyme assay, Pim-2; read-out: Pim2_IC50. An outline of the steps: (§1)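 Inhibition is reported as IC50 from a 4-parameter logistic fit of percent-of-control HTRF signal, which tracks phospho-BAD (S112) formed by full-length human Pim-1 or Pim-2. Reactions ran in 60 mM Hepes, pH 7.0, 0.05% BSA, 2 mM DTT.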
Background: Time-resolved FRET reads energy transfer from a long-lived donor to a nearby acceptor.

Test [2] addresses T2, full length recombinant Pim-1 protein (Homo sapiens, UniProt P11309).
T2 construct: by full length recombinant Pim-1, Pim-2, or Pim-3 protein; hexahistidine tag followed by a thrombin cleavage site (N); made in house; host or cells: Sf9 (baculovirus) or E. coli (pET28)
The test is described as follows: Pim-1 enzyme assay (HTRF, phosphorylation of biotinylated-BAD (S112) peptide). The following applies: enzyme assay, Pim-1; read-out: Pim_1_IC50. An outline of the steps:
as §1

For test [3], the target named is T3, full length recombinant Pim-3 protein (Homo sapiens, UniProt Q86V86).
T3 construct: by full length recombinant Pim-1, Pim-2, or Pim-3 protein; purchased Millipore (UK)
The test is described as follows: Pim-3 enzyme assay (HTRF, phosphorylation of biotinylated-BAD (S112) peptide). As to conditions: read-out: Pim3 IC50. The text has this: Pim-3 was purchased from Millipore (UK).
The phosphorylation of biotinylated-BAD (S112) peptide by full length recombinant Pim-1, Pim-2, or Pim-3 protein was detected with streptavidin:Allophycocyanin (APC) conjugate and a europium (Eu) labeled antibody directed against phosphorylated-BAD (S112). […] The fluorescence is directly proportional to the amount of phosphorylated BAD peptide present in the reaction.
A reference compound was included on each assay plate in order to validate that plate; on one plate of every assay run, two additional reference compounds were included.
The final buffer conditions were as follows: 60 mM Hepes, pH 7.0, 0.05% BSA, 2 mM DTT. […] The reaction was stopped by the addition of 3 mM EDTA, and fluorescence was measured by an HTRF® Rubystar microplate reader. For each plate, percent of control (POC) values were calculated for each well. Values for the IC50 IP were estimated using a standard 4-parameter logistic model.

T1 sequence (Q9P1W9 whole entry): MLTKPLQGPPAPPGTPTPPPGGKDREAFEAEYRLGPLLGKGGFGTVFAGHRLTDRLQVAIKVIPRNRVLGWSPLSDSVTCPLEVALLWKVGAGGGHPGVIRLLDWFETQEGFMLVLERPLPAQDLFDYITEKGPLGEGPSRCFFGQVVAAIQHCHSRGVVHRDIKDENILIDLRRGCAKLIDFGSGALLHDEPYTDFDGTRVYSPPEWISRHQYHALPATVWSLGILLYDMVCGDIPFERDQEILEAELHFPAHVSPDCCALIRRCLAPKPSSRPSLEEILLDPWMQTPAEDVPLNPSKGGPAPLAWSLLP
T2 sequence (P11309 whole entry): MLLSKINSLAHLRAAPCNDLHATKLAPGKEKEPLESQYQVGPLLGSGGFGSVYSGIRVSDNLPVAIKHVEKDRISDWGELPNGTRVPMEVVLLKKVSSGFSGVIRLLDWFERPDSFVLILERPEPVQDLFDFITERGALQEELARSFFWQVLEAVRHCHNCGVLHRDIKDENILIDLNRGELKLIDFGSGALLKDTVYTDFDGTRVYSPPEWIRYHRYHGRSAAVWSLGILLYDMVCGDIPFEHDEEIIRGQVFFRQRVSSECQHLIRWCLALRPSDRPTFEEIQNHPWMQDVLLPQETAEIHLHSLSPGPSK

For `COc1cncc(-c2ccc3[nH]nc(-c4cncc(OC)c4)c3c2)c1` [Example 29, 3,5-Bis(5-methoxypyridin-3-yl)-1H-indazole], the IC50 in test [1] was found to be 1010 nM; in test [2], 227 nM; in test [3], 172 nM.
In the same order, the values of `NC1CCN(c2cncc(-c3n[nH]c4ccc(-c5c(F)cccc5F)cc34)c2)CC1` [Example 35, 1-(5-(5-(2,6-difluorophenyl)-1H-indazol-3-yl)pyridin-3-yl)piperidin-4-amine] are 2300 nM, 124 nM and 104 nM.
In the same order, the values of `NC1CCN(c2cncc(-c3n[nH]c4ccc(N5CCCCC5=O)cc34)n2)CC1` [Example 91, 1-(3-(6-(4-amino-1-piperidinyl)-2-pyrazinyl)-1H-indazol-5-yl)-2-piperidinone] are greater than 3000 nM, 629 nM and 926 nM.
With `Nc1cccnc1-c1ccc2[nH]nc(-c3cncc(N4CCC(N)CC4)n3)c2c1` [Example 94, 2-(3-(6-(4-amino-1-piperidinyl)-2-pyrazinyl)-1H-indazol-5-yl)-3-pyridinamine], the IC50 in test [1] was greater than 1000 nM; in test [2], 86 nM; in test [3], 118 nM.
In the same order, the values of `Nc1ncc(-c2ccc3[nH]nc(-c4cncc(N5CCC(N)CC5)n4)c3c2)c(NC2CCCC2)n1` [Example 96, 5-(3-(6-(4-amino-1-piperidinyl)-2-pyrazinyl)-1H-indazol-5-yl)-N~4~-cyclopentyl-2,4-pyrimidinediamine] are greater than 1000 nM, 848 nM and 1120 nM.
With `Cc1c(N)cccc1-c1ccc2[nH]nc(-c3cncc(N4CCC(N)CC4)n3)c2c1` [Example 103, 1-(6-(5-(3-amino-2-methylphenyl)-1H-indazol-3-yl)-2-pyrazinyl)-4-piperidinamine], the IC50 in test [1] was determined as 224 nM; in test [2] it was 34 nM; in test [3] it was 68 nM.
In the same order, the values of `NC1CCN(c2cncc(-c3n[nH]c4ccc(-c5cccc6c5C5(CCOCC5)CN6)cc34)n2)CC1` [Example 106, 1-(6-(5-(1,2,2′,3′,5′,6′-hexahydrospiro[indole-3,4′-pyran]-4-yl)-1H-indazol-3-yl)-2-pyrazinyl)-4-piperidinamine] are 897 nM, 499 nM and 278 nM.
In the same order, the values of `Nc1ccc(OC(F)(F)F)c(-c2ccc3[nH]nc(-c4cncc(N5CCC(N)CC5)n4)c3c2)c1` [Example 107, 1-(6-(5-(5-amino-2-(trifluoromethoxy)phenyl)-1H-indazol-3-yl)-2-pyrazinyl)-4-piperidinamine] are 192 nM, 30 nM and 67 nM.
In the same order, the values of `NC1CCN(c2cncc(-c3n[nH]c4ccc(-c5ccnc6cc(OC(F)(F)F)ccc56)cc34)n2)CC1` [Example 111, 1-(6-(5-(7-(trifluoromethoxy)-4-quinolinyl)-1H-indazol-3-yl)-2-pyrazinyl)-4-piperidinamine] are 292 nM, 29 nM and 87 nM.
In the case of `N#Cc1ccc2c(-c3ccc4[nH]nc(-c5cncc(N6CCC(N)CC6)n5)c4c3)ccnc2c1` [Example 112, 4-(3-(6-(4-amino-1-piperidinyl)-2-pyrazinyl)-1H-indazol-5-yl)-7-quinolinecarbonitrile], the IC50 in test [1] is 521 nM; in test [2], 32 nM; in test [3] it was 116 nM.
In the same order, the values of `CC(C)(C)NC(=O)c1ccc(F)c(-c2ccc3[nH]nc(-c4cncc(O[C@@H]5CCCNC5)n4)c3c2)c1` [Example 116, N-tert-butyl-4-fluoro-3-(3-(6-((3R)-3-piperidinyloxy)-2-pyrazinyl)-1H-indazol-5-yl)benzamide] are 26 nM, 27 nM and 22 nM.
For `O=c1[nH]cncc1-c1ccc2[nH]nc(-c3cncc(O[C@@H]4CCCNC4)n3)c2c1` [Example 125, 5-(3-(6-((3R)-3-piperidinyloxy)-2-pyrazinyl)-1H-indazol-5-yl)-4(3H)-pyrimidinone], the IC50 was determined as 80 nM in test [1], 21 nM in test [2] and 16 nM in test [3].
For the compound `O=c1cc(-c2ccc3[nH]nc(-c4cncc(O[C@@H]5CCCNC5)n4)c3c2)c(Cl)c[nH]1` [Example 128, 5-chloro-4-(3-(6-((3R)-3-piperidinyloxy)-2-pyrazinyl)-1H-indazol-5-yl)-2(1H)-pyridinone], the IC50 in test [1] worked out at 59 nM; in test [2], 31 nM; in test [3] it was 30 nM.
`Cn1cc(-c2ccc3[nH]nc(-c4cncc(O[C@@H]5CCCNC5)n4)c3c2)cn1` [Example 129, 5-(1-methyl-1H-pyrazol-4-yl)-3-(6-((3R)-3-piperidinyloxy)-2-pyrazinyl)-1H-indazole]: the values for the IC50 in test [1], in test [2] and in test [3] were 30 nM, 3 nM and 3 nM, respectively.
Consider `Brc1ccc2[nH]nc(-c3cncc(O[C@@H]4CCCNC4)n3)c2c1` [Example 135, 5-bromo-3-(6-((3R)-3-piperidinyloxy)-2-pyrazinyl)-1H-indazole], for which the IC50 was 227 nM in test [1], 83 nM in test [2] and 82 nM in test [3].
In the same order, the values of `c1cc(-c2ccc3[nH]nc(-c4cncc(O[C@@H]5CCCNC5)n4)c3c2)nc(C2CC2)c1` [Example 136, 5-(6-cyclopropyl-2-pyridinyl)-3-(6-((3R)-3-piperidinyloxy)-2-pyrazinyl)-1H-indazole] are 164 nM, 30 nM and 15 nM.
In the same order, the values of `c1cc(C2CC2)cc(-c2ccc3[nH]nc(-c4cncc(O[C@@H]5CCCNC5)n4)c3c2)n1` [Example 141, 5-(4-cyclopropyl-2-pyridinyl)-3-(6-((3R)-3-piperidinyloxy)-2-pyrazinyl)-1H-indazole] are 435 nM, 42 nM and 32 nM.
In the same order, the values of `CC(C)Oc1cccc(-c2ccc3[nH]nc(-c4cncc(O[C@@H]5CCCNC5)n4)c3c2)n1` [Example 144, 5-(6-(1-methylethoxy)-2-pyridinyl)-3-(6-((3R)-3-piperidinyloxy)-2-pyrazinyl)-1H-indazole] are 252 nM, 27 nM and 26 nM.
Consider `c1cc2[nH]nc(-c3cncc(O[C@@H]4CCCNC4)n3)c2cc1-c1ccc2nncn2c1` [Example 145, 6-(3-(6-((3R)-3-piperidinyloxy)-2-pyrazinyl)-1H-indazol-5-yl)[1,2,4]triazolo[4,3-a]pyridine], for which the IC50 in test [1] was determined as 496 nM; in test [2], 23 nM; in test [3] it was 80 nM.
In the same order, the values of `FC(F)(F)Oc1cccc(-c2ccc3[nH]nc(-c4cncc(O[C@@H]5CCCNC5)n4)c3c2)c1` [Example 150, 3-(6-((3R)-3-piperidinyloxy)-2-pyrazinyl)-5-(3-(trifluoromethoxy)phenyl)-1H-indazole] are 214 nM, 35 nM and 29 nM.
As for `c1cc2[nH]nc(-c3cncc(O[C@@H]4CCCNC4)n3)c2cc1C1CCOCC1` [Example 151, 3-(6-((3R)-3-piperidinyloxy)-2-pyrazinyl)-5-(tetrahydro-2H-pyran-4-yl)-1H-indazole], the IC50 in test [1] is 118 nM; in test [2], 27 nM; in test [3] it was 129 nM.
For `Oc1nccc(-c2ccc3[nH]nc(-c4cncc(O[C@@H]5CCCNC5)n4)c3c2)n1` [Example 155, 4-(3-(6-((3R)-3-piperidinyloxy)-2-pyrazinyl)-1H-indazol-5-yl)-2-pyrimidinol], the IC50 in test [1] amounted to 108 nM; in test [2], 36 nM; in test [3], 27 nM.
In the same order, the values of `c1cc2[nH]nc(-c3cncc(O[C@@H]4CCCNC4)n3)c2cc1C1CCCOC1` (stereo partly drawn) [Example 156, 3-(6-((3R)-3-piperidinyloxy)-2-pyrazinyl)-5-(tetrahydro-2H-pyran-3-yl)-1H-indazole] are 144 nM, 49 nM and 66 nM.
For the compound `Fc1cccc(F)c1-c1ccc2[nH]nc(-c3cncc(N4CCCC4)n3)c2c1` [Example 170, 5-(2,6-difluorophenyl)-3-(6-(1-pyrrolidinyl)-2-pyrazinyl)-1H-indazole], the results for the IC50 in test [1], in test [2] and in test [3] were greater than 3000 nM, 153 nM and 187 nM, respectively.
In the same order, the values of `O[C@H]1CCN(c2cncc(-c3n[nH]c4ccc(-c5c(F)cccc5F)cc34)n2)C1` [Example 175, (3S)-1-(6-(5-(2,6-difluorophenyl)-1H-indazol-3-yl)-2-pyrazinyl)-3-pyrrolidinol] are 1180 nM, 168 nM and 153 nM.

For the origin of these results see patent US9090593B2, “Bicyclic compounds as Pim inhibitors” (AMGEN INC., priority 2010, dated 2015).
